Results taken from patent US20230321067A1, “DOSING REGIMEN COMPRISING 3-(1-OXOISOINDOLIN-2-YL)PIPERIDINE-2,6-DIONE DERIVATIVES” (Novartis AG, priority 2020, published 2023).
“And” between values parts separate entries of the source, which are not always exact repeats. Equal values may be shown once.

Assays:
Treg cells = experiment: Suppressive potency of Treg cells expanded in the presence of compound (FIG. 2C); format: cell-based
Text: FIG. 2C is a bar graph showing the suppressive potency of Treg cells expanded in the presence of Compound I-57.

GSPT1 = molecular target: T1, GSPT1 (Homo sapiens, UniProt P15170); experiment: GSPT1 degradation in vitro (FIG. 1); format: cell-based
T1 construct: prolabel (ProLabel enzyme-fragment tag); expressed in transfected cells; host or cells: HEK293T
Text: (§1) Although the specific transcriptional targets of IKZF2 remain to be defined, IKZF2 binds to and represses transcription from the IL-2 promoter region (Baine 2013). […] Finally, an in vitro assay recapitulating hallmarks of T cell dysfunction/exhaustion, by sequential TCR stimulation of isolated primary human T cells, was used to test the hypothesis that […] would rescue the exhausted phenotype and enhance Teff cell activity. […] In addition to IKZF1, other known cereblon substrates including translation termination factor G1 to S phase transition 1 (GSPT1) are not degraded by I-57 (FIG. 1).

IKZF2 [1] = experiment: IKZF2 degradation in primary rabbit PBMCs; format: cell-based
Experimental: I-57 mediated degradation of IKZF2 was assessed in primary PBMCs obtained from rabbit, dog, pig, cynomolgus monkey, and human, and in primary splenocytes of mouse and rat. […] Species-specificity due to species specific alteration CRBN primary structure have previously been described with other compounds known to interact with the CRBN ubiquitin ligase complex to elicit protein specific degradation (Krönke et al, 2015).

[2] = tested on: IL-2 mRNA and soluble protein in Jurkat cells; experiment: IL-2 expression in TCR-stimulated Jurkat cells; format: cell-based; conditions: Homo sapiens; Jurkat cells upon TCR stimulation
Text: as §1

primary human Tregs = experiment: Suppression of Teff proliferation by in vitro expanded primary human Tregs; format: cell-based
TMEM97 = molecular target: T2, TMEM97 (Homo sapiens, UniProt Q5BJF2); experiment: Whole cell proteomic analysis in 293T cells: TMEM97; format: cell-based
T2 construct: endogenous in cells; host or cells: 293T
Experimental: Other potential degradation targets of I-57 were evaluated in 293T cells using whole cell proteomic analysis. […] Subsequent analyses have confirmed that FIZ1 is degraded by about 50% at a 10 μM concentration of I-57 ([I-57 Investigator's Brochure]). […] FIZ1 is expressed in the neural retina where it transcriptionally represses the differentiation of photoreceptors. FIZ1 is also expressed in non-ocular tissues with unknown function.

[3] = In vivo non-clinical PK profile, all species tested; set-up: species or system mouse, rat, dog and cynomolgus monkey
Experimental: The in vivo non-clinical PK profile of I-57 was investigated in mouse, rat, dog and cynomolgus monkey using I-57 free base. […] After p.o. administration, the absorption of I-57 was rapid with peak blood concentration (Tmax) occurring between 1 and 4 hours. […] In high dose PK and toxicology studies with I-57 the exposures in mouse, rat and monkey increased with dose.

[4] = In vitro metabolism in liver microsomes and hepatocytes across species; format: in vitro ADME
Experimental: In vivo in the dog, very minor amounts of the N-dealkylation product and products derived from hydrolysis of the glutarimide moiety were detected in plasma. While the contribution of CYP-mediated oxidative metabolism to systemic clearance is unknown, a preliminary assessment of the enzymes involved was conducted using human recombinant CYPs in vitro.

CYP2A6 = CYP2A6 (Homo sapiens, UniProt P11509); experiment: CYP inhibition: CYP2A6; format: in vitro ADME; conditions: I-57 concentrations of up to 100 μM
CYP2C9 = CYP2C9 (Homo sapiens, UniProt P11712); experiment: CYP inhibition: CYP2C9; format: in vitro ADME; conditions: I-57 concentrations of up to 100 μM
CYP3A = experiment: Time-dependent CYP inhibition: CYP3A; format: in vitro ADME; conditions: I-57 concentrations of up to 100 μM
hERG = hERG (Homo sapiens, UniProt Q12809); experiment: In vitro hERG inhibition; format: biochemical
Experimental: (§2) The risk of possible QTc interval prolongation at the starting dose is therefore considered low. QT prolongation may become clinically significant during escalation but are not anticipated to be dose limiting until doses at or above 640 mg. Monitoring and other measures to mitigate potential risk of arrhythmia is addressed in Example 3 below.

[5] = ECG (QTc) in monkeys, single dose and 4-week GLP repeat dose study; format: in vivo, monkey
Experimental: as §2

[6] = Toxicology in rats (5-day and 4-week GLP studies); format: in vivo
Text: The non-clinical safety profile of I-57 was established in vitro, and in vivo in rats and cynomolgus monkeys in studies up to 4-weeks duration. Based on the outcome of these studies, QTc interval prolongation was identified as the principal safety signal for I-57. There were other toxicities such as diarrhea and vomiting in monkeys, and mortality, clinical signs and target organ toxicities in rats; however, these occurred at exposures far above those expected to result in clinical activity.
Clinical signs, decreases in body weight and food consumption, and clinical pathology changes reflecting inflammation, renal and liver injury, and stress were generally evident in the pre-terminal animals. Kidney toxicity was evident in rats at doses >100 mg/kg/day and was characterized by increased weight, hematuria, proteinuria, with or without increased blood urea and creatinine, degeneration, regeneration and inflammation at 300 mg/kg/day.

IKZF2 [7] = molecular target: T3, IKZF2 (Homo sapiens, UniProt Q96SW2+Q9UKS7); experiment: Degradation of IKZF2 in primary PBMCs, human (FIG. 3); format: cell-based; set-up: endogenous in cells; host or cells: primary human PBMCs
Text: FIG. 3. is a bar graph showing the degradation of IKZF2 in primary PBMCs obtained from rabbit, dog, pig, cynomolgus monkey and human, and in primary splenocytes of mouse and rat and treated with Compound I-57.

IKZF2 [8] = molecular target: T3, IKZF2; experiment: IKZF2 degradation in vitro (FIG. 1); format: cell-based; set-up: prolabel (ProLabel enzyme-fragment tag); expressed in transfected cells; host or cells: HEK293T
Text: as §1

[9] = i.v. administration, all species tested, I-57 free base

T3 sequence (Q9UKS7 whole entry): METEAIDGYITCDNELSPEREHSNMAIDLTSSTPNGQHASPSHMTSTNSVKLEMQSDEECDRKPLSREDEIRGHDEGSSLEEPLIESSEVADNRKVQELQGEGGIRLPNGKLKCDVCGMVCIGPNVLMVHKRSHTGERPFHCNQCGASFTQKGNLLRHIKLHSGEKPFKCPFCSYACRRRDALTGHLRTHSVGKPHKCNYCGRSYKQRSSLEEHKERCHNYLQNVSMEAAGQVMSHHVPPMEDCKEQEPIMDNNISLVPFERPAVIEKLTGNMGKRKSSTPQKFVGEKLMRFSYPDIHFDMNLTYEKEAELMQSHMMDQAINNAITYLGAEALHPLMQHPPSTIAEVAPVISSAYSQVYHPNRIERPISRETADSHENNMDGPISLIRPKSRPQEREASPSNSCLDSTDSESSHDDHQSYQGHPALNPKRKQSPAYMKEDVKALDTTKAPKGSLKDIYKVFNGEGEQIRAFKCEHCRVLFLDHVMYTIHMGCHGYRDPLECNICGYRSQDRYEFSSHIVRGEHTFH
T3 sequence (Q96SW2 whole entry): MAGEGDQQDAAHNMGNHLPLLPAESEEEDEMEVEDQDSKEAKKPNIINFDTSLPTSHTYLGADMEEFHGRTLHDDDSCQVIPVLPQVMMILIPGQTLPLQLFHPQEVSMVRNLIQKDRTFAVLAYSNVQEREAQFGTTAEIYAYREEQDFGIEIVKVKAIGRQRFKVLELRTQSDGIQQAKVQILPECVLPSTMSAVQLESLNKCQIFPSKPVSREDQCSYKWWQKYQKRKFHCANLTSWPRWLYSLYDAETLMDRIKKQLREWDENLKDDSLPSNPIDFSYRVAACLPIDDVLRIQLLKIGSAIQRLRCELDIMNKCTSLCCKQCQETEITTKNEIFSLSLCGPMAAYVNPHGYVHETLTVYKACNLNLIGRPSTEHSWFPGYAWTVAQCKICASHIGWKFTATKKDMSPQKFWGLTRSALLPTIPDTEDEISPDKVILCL
T3 sequence (Q16531 whole entry partner): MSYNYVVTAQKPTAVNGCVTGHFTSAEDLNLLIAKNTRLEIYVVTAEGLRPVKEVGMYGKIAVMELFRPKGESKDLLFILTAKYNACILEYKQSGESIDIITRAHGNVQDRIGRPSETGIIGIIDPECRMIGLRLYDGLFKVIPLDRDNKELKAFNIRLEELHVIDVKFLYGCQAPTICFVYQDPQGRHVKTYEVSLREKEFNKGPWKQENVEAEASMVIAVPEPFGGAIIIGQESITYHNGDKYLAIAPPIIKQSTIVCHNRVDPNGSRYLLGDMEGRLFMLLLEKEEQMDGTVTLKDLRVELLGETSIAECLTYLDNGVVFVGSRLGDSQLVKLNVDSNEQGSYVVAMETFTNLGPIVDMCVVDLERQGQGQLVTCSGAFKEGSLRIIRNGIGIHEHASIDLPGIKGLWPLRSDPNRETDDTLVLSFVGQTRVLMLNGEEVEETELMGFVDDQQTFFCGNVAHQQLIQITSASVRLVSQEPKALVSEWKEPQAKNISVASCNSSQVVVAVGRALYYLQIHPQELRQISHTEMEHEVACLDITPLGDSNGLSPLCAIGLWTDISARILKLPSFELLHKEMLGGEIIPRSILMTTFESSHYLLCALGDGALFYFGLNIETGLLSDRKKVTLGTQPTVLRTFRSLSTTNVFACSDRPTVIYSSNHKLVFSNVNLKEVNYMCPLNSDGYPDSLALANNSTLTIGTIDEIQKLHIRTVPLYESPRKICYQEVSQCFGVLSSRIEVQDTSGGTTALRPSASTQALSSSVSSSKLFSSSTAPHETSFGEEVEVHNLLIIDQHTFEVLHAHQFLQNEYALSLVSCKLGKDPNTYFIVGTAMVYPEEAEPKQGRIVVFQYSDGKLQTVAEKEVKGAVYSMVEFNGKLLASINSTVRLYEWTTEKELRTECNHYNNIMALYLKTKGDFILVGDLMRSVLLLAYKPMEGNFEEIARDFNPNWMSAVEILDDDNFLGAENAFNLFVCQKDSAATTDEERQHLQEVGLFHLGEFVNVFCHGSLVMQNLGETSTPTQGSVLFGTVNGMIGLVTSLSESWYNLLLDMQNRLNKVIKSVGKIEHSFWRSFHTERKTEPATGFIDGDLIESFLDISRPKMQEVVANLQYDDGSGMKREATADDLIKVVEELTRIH
Chain of CYP2A6 (P11509 whole entry): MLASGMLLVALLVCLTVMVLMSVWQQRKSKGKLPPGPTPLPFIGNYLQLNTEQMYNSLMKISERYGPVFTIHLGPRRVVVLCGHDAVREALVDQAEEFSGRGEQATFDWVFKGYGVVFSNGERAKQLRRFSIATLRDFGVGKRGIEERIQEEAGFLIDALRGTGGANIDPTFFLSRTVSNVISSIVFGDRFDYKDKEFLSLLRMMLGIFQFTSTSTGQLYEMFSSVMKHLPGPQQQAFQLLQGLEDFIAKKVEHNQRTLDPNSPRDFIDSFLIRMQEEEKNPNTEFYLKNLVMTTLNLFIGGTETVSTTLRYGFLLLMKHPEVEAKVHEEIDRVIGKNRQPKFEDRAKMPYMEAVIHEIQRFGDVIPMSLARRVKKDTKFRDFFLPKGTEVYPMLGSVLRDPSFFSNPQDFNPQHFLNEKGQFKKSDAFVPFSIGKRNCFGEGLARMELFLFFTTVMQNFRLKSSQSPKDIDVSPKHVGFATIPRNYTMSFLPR
Chain of CYP2C9 (P11712 whole entry): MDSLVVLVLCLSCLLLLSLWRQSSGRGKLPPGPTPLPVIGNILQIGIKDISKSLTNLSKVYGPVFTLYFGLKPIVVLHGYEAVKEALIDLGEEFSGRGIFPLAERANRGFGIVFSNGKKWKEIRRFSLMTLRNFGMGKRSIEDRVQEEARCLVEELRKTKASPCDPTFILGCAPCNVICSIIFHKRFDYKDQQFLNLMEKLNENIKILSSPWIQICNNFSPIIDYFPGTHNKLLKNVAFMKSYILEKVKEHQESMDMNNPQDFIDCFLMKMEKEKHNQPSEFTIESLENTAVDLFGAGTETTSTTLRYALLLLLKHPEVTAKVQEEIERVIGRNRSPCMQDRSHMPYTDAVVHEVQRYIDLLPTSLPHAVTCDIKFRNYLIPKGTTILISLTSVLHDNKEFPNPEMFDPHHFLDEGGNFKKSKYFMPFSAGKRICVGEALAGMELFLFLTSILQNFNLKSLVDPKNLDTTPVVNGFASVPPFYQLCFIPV
Chain of hERG (Q12809 whole entry): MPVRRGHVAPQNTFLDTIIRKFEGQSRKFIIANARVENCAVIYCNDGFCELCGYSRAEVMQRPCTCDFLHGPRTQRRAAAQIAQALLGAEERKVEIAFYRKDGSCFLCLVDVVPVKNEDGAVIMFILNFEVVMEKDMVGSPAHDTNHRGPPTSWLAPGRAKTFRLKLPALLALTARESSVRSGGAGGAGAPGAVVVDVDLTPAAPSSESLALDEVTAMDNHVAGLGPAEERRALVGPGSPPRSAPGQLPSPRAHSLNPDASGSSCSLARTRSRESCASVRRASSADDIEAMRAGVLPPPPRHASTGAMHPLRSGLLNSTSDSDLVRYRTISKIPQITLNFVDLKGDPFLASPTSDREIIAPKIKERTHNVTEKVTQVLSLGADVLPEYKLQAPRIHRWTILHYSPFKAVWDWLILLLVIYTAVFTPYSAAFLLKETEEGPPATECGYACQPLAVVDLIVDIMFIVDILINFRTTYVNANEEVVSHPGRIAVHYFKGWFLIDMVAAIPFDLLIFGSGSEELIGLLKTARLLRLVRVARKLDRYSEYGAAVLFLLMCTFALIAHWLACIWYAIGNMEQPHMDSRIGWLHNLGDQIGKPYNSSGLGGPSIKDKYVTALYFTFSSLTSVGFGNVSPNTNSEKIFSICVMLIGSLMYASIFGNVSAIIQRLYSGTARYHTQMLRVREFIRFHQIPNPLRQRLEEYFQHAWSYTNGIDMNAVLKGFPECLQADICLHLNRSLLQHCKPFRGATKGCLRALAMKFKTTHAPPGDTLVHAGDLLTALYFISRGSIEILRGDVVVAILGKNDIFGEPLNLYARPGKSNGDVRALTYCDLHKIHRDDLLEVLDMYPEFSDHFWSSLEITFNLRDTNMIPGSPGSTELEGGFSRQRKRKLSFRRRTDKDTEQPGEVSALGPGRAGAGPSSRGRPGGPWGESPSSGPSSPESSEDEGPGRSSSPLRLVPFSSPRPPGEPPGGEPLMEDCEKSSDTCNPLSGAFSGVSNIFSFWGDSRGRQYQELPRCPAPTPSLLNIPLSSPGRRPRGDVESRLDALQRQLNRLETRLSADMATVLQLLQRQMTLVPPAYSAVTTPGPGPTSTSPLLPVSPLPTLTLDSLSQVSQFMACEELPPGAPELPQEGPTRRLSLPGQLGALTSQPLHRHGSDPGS
T1 sequence (Q96SW2 whole entry partner, the tested form may be a part): as the sequence (Q96SW2 whole entry) above
T1 sequence (Q16531 whole entry partner, the tested form may be a part): as the sequence (Q16531 whole entry partner) above
T1 sequence (P15170 whole entry, the tested form may be a part): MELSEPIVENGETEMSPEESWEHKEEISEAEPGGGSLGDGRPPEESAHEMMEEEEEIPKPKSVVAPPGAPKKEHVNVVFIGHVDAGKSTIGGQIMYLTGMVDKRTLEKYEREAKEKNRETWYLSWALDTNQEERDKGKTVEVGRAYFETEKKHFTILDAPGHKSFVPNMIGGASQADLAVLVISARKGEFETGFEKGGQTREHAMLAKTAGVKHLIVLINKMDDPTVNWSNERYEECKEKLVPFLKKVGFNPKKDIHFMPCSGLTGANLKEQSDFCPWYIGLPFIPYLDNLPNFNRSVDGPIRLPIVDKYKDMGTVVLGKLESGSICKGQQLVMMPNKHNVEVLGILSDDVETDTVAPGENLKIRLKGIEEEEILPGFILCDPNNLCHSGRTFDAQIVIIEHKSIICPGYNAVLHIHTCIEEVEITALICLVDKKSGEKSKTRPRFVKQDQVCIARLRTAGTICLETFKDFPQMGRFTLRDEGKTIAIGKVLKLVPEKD
T2 sequence (Q5BJF2 whole entry): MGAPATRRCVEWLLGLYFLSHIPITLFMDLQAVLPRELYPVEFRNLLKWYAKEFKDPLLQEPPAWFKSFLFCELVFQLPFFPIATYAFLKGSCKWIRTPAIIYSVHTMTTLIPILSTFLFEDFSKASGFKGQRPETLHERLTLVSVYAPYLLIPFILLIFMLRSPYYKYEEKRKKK

O=C1CCC(N2Cc3cc(C4CCN(Cc5ccccc5)CC4)ccc3C2=O)C(=O)N1 (stereo not drawn) [Compound I-57, 3-(5-(1-benzylpiperidin-4-yl)-1-oxoisoindolin-2-yl)piperidine-2,6-dione]
capacity of Treg cells to suppress Teff proliferation (Treg cells): reduced capacity to suppress Teff proliferation
degradation of GSPT1 (GSPT1): not degraded
degradation of IKZF2 (IKZF2 [1]): Degradation was observed
AC50 [2]: ~4 nM and ~0.0017 µg/mL
IKZF2 protein level in Treg cells (primary human Tregs; primary human Tregs expanded in vitro): reduced proportionally to the I-57 dose
capacity of Tregs to suppress Teff proliferation (primary human Tregs; primary human Tregs expanded in vitro in the presence of I-57): reduced capacity to suppress Teff proliferation
degradation of TMEM97 (TMEM97): degraded
blood clearance (CL) [3, 9]: low to moderate
terminal half-life (T½) [3, 9]: moderate
volume of distribution (Vss) [3, 9]: moderate to high
Tmax ([3]; mouse, rat, dog, cynomolgus monkey, blood, po, p.o. administration, read-out: peak blood concentration (Tmax)): 1 to 4 h
metabolic stability [4]: very stable and no appreciable metabolic turnover was observed
inhibition of CYP2A6 (CYP2A6): very little and no inhibition
inhibition of CYP2C9 (CYP2C9): very little and no inhibition
time-dependent inhibition of CYP3A (CYP3A): no apparent time-dependent inhibition
IC50 (hERG): 7.1 µM
cardiac electrical instability or wave abnormality [5]: No cardiac electrical instability or wave abnormality was observed
QT effects ([5]; 3 mg/kg): no QT effects were noted
free Cmax in monkeys at 3 mg/kg relative to free Cmax predicted at the clinical starting dose of 20 mg ([5]; 3 mg/kg): ~8.4 times
time of highest magnitude of the QTc effect ([5]; coinciding with Tmax): 0.5 to 5.5 h
increase in QTc interval ([5]; doses >10 mg/kg, single dose and 4-week GLP repeat dose study): at least 30 mSec
reversibility of findings ([6]; rat, in vivo): fully reversed or showed ongoing recovery
stomach findings ([6]; rat, in vivo, 300 mg/kg/day): mucosal hyperplasia, inflammation and degeneration in the stomach
urinary bladder findings ([6]; rat, in vivo, 300 mg/kg/day): Degenerative changes were present in the urinary bladder
dose at which kidney toxicity was evident ([6]; rats): > 100 mg/kg/day
dose at which mortality occurred ([6]; rats, females): > 300 mg/kg/day
dose at which mortality occurred ([6]; rats, males): 1000 mg/kg
genotoxic potential (Genotoxic potential): no genotoxic or phototoxic potential
degradation of IKZF2 (IKZF2 [7]): degradation was observed
degradation of IKZF2 (IKZF2 [8]): potent and selective degrader of IKZF2
